Species: Rattus norvegicus
Assay: Open TG-GATES - Regimen: Daily Repeat
Format: toxicity, organism-based, Sprague-Dawley
Design: regimen Daily Repeat, gender Male, age 6 weeks
Conditions: in vivo, po, 10 mg/kg, route gavage, dose level Low; for APTT / Bas / Eos / Fbg / Hb / Ht / Lym / MCHC / MCV / Mono / Neu / PT / Plat / RBC / Ret / WBC: tissue Blood; for KIDNEY_L / KIDNEY_R / KIDNEY_TOTAL: tissue Kidney; for LIVER: tissue Liver; for ALP / ALT / AST / BUN / CRE / Ca / Cl / DBIL / GLC / IP / K / LDH / Na / PL / RALB / TBIL / TC / TG / TP / gamma-GTP: tissue Plasma

SMILES: CS(=O)(=O)Nc1ccc([N+](=O)[O-])cc1Oc1ccccc1 [NIMESULIDE]
- TERMINAL_BW (72 h, time 3 day): 219.5 g
- APTT (72 h, time 3 day): 16.3 s
- Bas (72 h, time 3 day): 0%
- Eos (72 h, time 3 day): 1.2%
- Fbg (72 h, time 3 day): 208.8 mg/dL
- Hb (72 h, time 3 day): 14 g/dL
- Ht (72 h, time 3 day): 41.3%
- Lym (72 h, time 3 day): 74.8%
- MCHC (72 h, time 3 day): 33.9%
- MCV (72 h, time 3 day): 63.4 fL
- Mono (72 h, time 3 day): 6.8%
- Neu (72 h, time 3 day): 17%
- PT (72 h, time 3 day): 11.4 s
- Plat (72 h, time 3 day): 114.4 x10_4/uL
- RBC (72 h, time 3 day): 651.8 x10_4/ul
- Ret (72 h, time 3 day): 10%
- WBC (72 h, time 3 day): 94 x10_2/uL
- KIDNEY_L (72 h, time 3 day): 1 g
- KIDNEY_R (72 h, time 3 day): 1 g
- KIDNEY_TOTAL (72 h, time 3 day): 1.9 g
- LIVER (72 h, time 3 day): 10.2 g
- ALP (72 h, time 3 day): 1001.2 IU/L
- ALT (72 h, time 3 day): 38.2 IU/L
- AST (72 h, time 3 day): 62.8 IU/L
- BUN (72 h, time 3 day): 18.8 mg/dL
- CRE (72 h, time 3 day): 0.6 mg/dL
- Ca (72 h, time 3 day): 10.8 mg/dL
- Cl (72 h, time 3 day): 103.6 meq/L
- DBIL (72 h, time 3 day): 0.056 mg/dL
- GLC (72 h, time 3 day): 195 mg/dL
- IP (72 h, time 3 day): 7.7 mg/dL
- K (72 h, time 3 day): 4.9 meq/L
- LDH (72 h, time 3 day): 105.6 IU/L
- Na (72 h, time 3 day): 139.4 meq/L
- PL (72 h, time 3 day): 145 mg/dL
- RALB (72 h, time 3 day): 4 g/dL
- TBIL (72 h, time 3 day): 0.3 mg/dL
- TC (72 h, time 3 day): 80 mg/dL
- TG (72 h, time 3 day): 75.8 mg/dL
- TP (72 h, time 3 day): 5.5 g/dL
- gamma-GTP (72 h, time 3 day): 1.2 IU/L
- TERMINAL_BW ([…], time 7 day): 242.4 g
- TERMINAL_BW ([…], time 14 day): 296.6 g
- TERMINAL_BW ([…], time 28 day): 395.2 g
- APTT ([…], time 7 day): 17.2 s
- Bas ([…], time 7 day): 0%
- Eos ([…], time 7 day): 1%
- Fbg ([…], time 7 day): 220.8 mg/dL
- Hb ([…], time 7 day): 14.3 g/dL
- Ht ([…], time 7 day): 41.8%
- Lym ([…], time 7 day): 75.2%
- MCHC ([…], time 7 day): 34.2%
- MCV ([…], time 7 day): 61.7 fL
- Mono ([…], time 7 day): 8.2%
- Neu ([…], time 7 day): 15.4%
- PT ([…], time 7 day): 11.2 s
- Plat ([…], time 7 day): 129.4 x10_4/uL
- RBC ([…], time 7 day): 678.4 x10_4/ul
- Ret ([…], time 7 day): 4.9%
- WBC ([…], time 7 day): 103.5 x10_2/uL
- APTT ([…], time 14 day): 17.9 s
- Bas ([…], time 14 day): 0%
- Eos ([…], time 14 day): 1%
- Fbg ([…], time 14 day): 227.8 mg/dL
- Hb ([…], time 14 day): 14.5 g/dL
- Ht ([…], time 14 day): 42.4%
- Lym ([…], time 14 day): 83.8%
- MCHC ([…], time 14 day): 34.3%
- MCV ([…], time 14 day): 62.7 fL
- Mono ([…], time 14 day): 4.8%
- Neu ([…], time 14 day): 10.8%
- PT ([…], time 14 day): 11.8 s
- Plat ([…], time 14 day): 117.1 x10_4/uL
- RBC ([…], time 14 day): 676.2 x10_4/ul
- Ret ([…], time 14 day): 5.6%
- WBC ([…], time 14 day): 121.2 x10_2/uL
- APTT ([…], time 28 day): 18.6 s
- Bas ([…], time 28 day): 0%
- Eos ([…], time 28 day): 1%
- Fbg ([…], time 28 day): 214.2 mg/dL
- Hb ([…], time 28 day): 15.2 g/dL
- Ht ([…], time 28 day): 45%
- Lym ([…], time 28 day): 80.8%
- MCHC ([…], time 28 day): 33.9%
- MCV ([…], time 28 day): 57.7 fL
- Mono ([…], time 28 day): 6.4%
- Neu ([…], time 28 day): 11.6%
- PT ([…], time 28 day): 11.9 s
- Plat ([…], time 28 day): 117.6 x10_4/uL
- RBC ([…], time 28 day): 782.6 x10_4/ul
- Ret ([…], time 28 day): 2.8%
- WBC ([…], time 28 day): 102.3 x10_2/uL
- KIDNEY_L ([…], time 7 day): 1.1 g
- KIDNEY_R ([…], time 7 day): 1.1 g
- KIDNEY_TOTAL ([…], time 7 day): 2.2 g
- KIDNEY_L ([…], time 14 day): 1.2 g
- KIDNEY_R ([…], time 14 day): 1.2 g
- KIDNEY_TOTAL ([…], time 14 day): 2.4 g
- KIDNEY_L ([…], time 28 day): 1.4 g
- KIDNEY_R ([…], time 28 day): 1.4 g
- KIDNEY_TOTAL ([…], time 28 day): 2.8 g
- LIVER ([…], time 7 day): 11.6 g
- LIVER ([…], time 14 day): 14.2 g
- LIVER ([…], time 28 day): 16.7 g
- ALP ([…], time 7 day): 890.6 IU/L
- ALT ([…], time 7 day): 36.6 IU/L
- AST ([…], time 7 day): 64.4 IU/L
- BUN ([…], time 7 day): 20 mg/dL
- CRE ([…], time 7 day): 0.5 mg/dL
- Ca ([…], time 7 day): 10.5 mg/dL
- Cl ([…], time 7 day): 105.4 meq/L
- DBIL ([…], time 7 day): 0.016 mg/dL
- GLC ([…], time 7 day): 200.8 mg/dL
- IP ([…], time 7 day): 7.6 mg/dL
- K ([…], time 7 day): 4.6 meq/L
- LDH ([…], time 7 day): 97 IU/L
- Na ([…], time 7 day): 140.4 meq/L
- PL ([…], time 7 day): 159.6 mg/dL
- RALB ([…], time 7 day): 4.1 g/dL
- TBIL ([…], time 7 day): 0.3 mg/dL
- TC ([…], time 7 day): 81.4 mg/dL
- TG ([…], time 7 day): 97.8 mg/dL
- TP ([…], time 7 day): 5.9 g/dL
- gamma-GTP ([…], time 7 day): 1.4 IU/L
- ALP ([…], time 14 day): 649.2 IU/L
- ALT ([…], time 14 day): 30.6 IU/L
- AST ([…], time 14 day): 63.6 IU/L
- BUN ([…], time 14 day): 21 mg/dL
- CRE ([…], time 14 day): 0.6 mg/dL
- Ca ([…], time 14 day): 10.6 mg/dL
- Cl ([…], time 14 day): 106.4 meq/L
- DBIL ([…], time 14 day): 0 mg/dL
- GLC ([…], time 14 day): 201.8 mg/dL
- IP ([…], time 14 day): 7.1 mg/dL
- K ([…], time 14 day): 4.6 meq/L
- LDH ([…], time 14 day): 88.6 IU/L
- Na ([…], time 14 day): 141 meq/L
- PL ([…], time 14 day): 161 mg/dL
- RALB ([…], time 14 day): 3.9 g/dL
- TBIL ([…], time 14 day): 0.3 mg/dL
- TC ([…], time 14 day): 78 mg/dL
- TG ([…], time 14 day): 147.6 mg/dL
- TP ([…], time 14 day): 5.9 g/dL
- gamma-GTP ([…], time 14 day): 1.8 IU/L
- ALP ([…], time 28 day): 745.8 IU/L
- ALT ([…], time 28 day): 34.6 IU/L
- AST ([…], time 28 day): 65.2 IU/L
- BUN ([…], time 28 day): 20 mg/dL
- CRE ([…], time 28 day): 0.6 mg/dL
- Ca ([…], time 28 day): 10.6 mg/dL
- Cl ([…], time 28 day): 108.4 meq/L
- DBIL ([…], time 28 day): 0.004 mg/dL
- GLC ([…], time 28 day): 197 mg/dL
- IP ([…], time 28 day): 6.8 mg/dL
- K ([…], time 28 day): 4.6 meq/L
- LDH ([…], time 28 day): 95.2 IU/L
- Na ([…], time 28 day): 144.2 meq/L
- PL ([…], time 28 day): 147.2 mg/dL
- RALB ([…], time 28 day): 4.1 g/dL
- TBIL ([…], time 28 day): 0.3 mg/dL
- TC ([…], time 28 day): 65.8 mg/dL
- TG ([…], time 28 day): 167 mg/dL
- TP ([…], time 28 day): 6.2 g/dL
- gamma-GTP ([…], time 28 day): 1.8 IU/L
